Source: patent publication US20040152903A1, “6-chloro-3-pyridylmethylpropylamine derivatives, preparation process thereof and bactericides” (priority 2004, published 2004)

What was measured:
wheat powdery mildew [1] = experiment: Test of control effect on wheat powdery mildew; format: in vivo; parameters: Control Value: scale not given here; conditions: wettable powder 125 mg/l, 100 liters/10 a, wheat seedlings (Nourin 64), examined 9th to 14th day after inoculation
Method: (Test of Control Effect on Wheat Powdery Mildew) Wettable powders were prepared from compounds of the present invention I-1 to I-27 and comparative compounds (a) to (d), (m-1) and (m-3). The obtained wettable powder was diluted and suspended with water to provide the predetermined concentration (125 mg/l), and was sprinkled onto seedlings of wheat (variety: “Nourin 64”) at the first to the second leaf period which were cultivated using square plastic pots (size: 6.4 cm×6.4 cm) in a rate of 100 liters/10 a (ares). After drying the sprinkled leaves with air, a suspension of wheat powdery mildew spores taken from infected leaves was inoculated by spraying onto the sprinkled leaves. They were supervised in a green house (temperature: 20 to 24° C., relative humidity: 20 to 70 RH). On the 9th to 14th day after the inoculation, the infection degree was examined according to the following scale and the control value of each compound was calculated by the following calculation equation 1. [table]

Botrytis cinerea = experiment: Antifungal activity test (PDA plate, hypha extension inhibition); format: cell-based; conditions: 1.6 ppm in PDA culture medium
Method: (Antifungal Activity Test against Various Pathogenic Fungi) For each of the compounds I-1 to 27 of the present invention and the comparative compounds (a) to (d), (m-1) and (m-3), 20 mg was weighed and dissolved in 2 ml of dimethylsulfoxide, and a double dilution row in 10 steps was prepared by further using dimethylsulfoxide. A 0.6 ml portion of these solutions was each added to 60 ml of a PDA culture medium (potato-dextrose-agar culture medium) at about 60° C., they were well mixed in a 100 ml Erlenmeyer flask, the solution was poured into a schale and was solidified, the plate culture media containing the compounds according to the present invention with final concentrations of 100, 50.0, 25.0, 12.5, 6.3, 3.2, 1.6, 0.8, 0.4 and 0.2 mg/l were prepared. On the other hand, the specimen bacteria cultured on the plate culture media beforehand was punched by a 4 mm diameter cork borer, and was inoculated on the plate culture media containing the aforementioned chemicals. After the inoculation, the bacteria were cultured at the optimum growth temperature of each bacterium for 1 to 7 days (for this optimum growth temperature, LIST OF CULTURES 1996 Microorganisms 10th edition published by Fermentation Research Institute (Foundation) can be referred to.), and the growth of the bacteria was measured by the diameter of a colony. […] R=100(dc−dt)/dc (Equation 3) [wherein each symbol is shown as follows: R=Hypha extension inhibition rate (%), dc=Diameter of colony on no-treated plate, dt=Diameter of colony on chemical-treated plate.] The results obtained above was evaluated in 5 steps in accordance with the following examination scale. <Growth Inhibition> 5: Hypha extension inhibition rate of 90% or more 4: Hypha extension inhibition rate of from 70% to less than 90% 3: […] 2: […] In addition, the abbreviations in Table 10 are as follows: B.c: Botrytis cinerea

cucumber powdery mildew = experiment: Test of control effect on cucumber powdery mildew; format: in vivo; conditions: wettable powder 100 mg/l, 100 liters/10 a, cucumber (Sagamihanpakufushinari), examined 9th to 14th day after inoculation
Method: (Test of Control Effect on Cucumber Powdery Mildew) The wettable powders formulated by using each of the compounds I-1 to 27 according to the present invention and the comparative compounds (a) to (d), (m-1) and (m-3) were each diluted and suspended with water to a predetermined concentration (100 mg/l), the suspension was sprinkled over the first to the second leaf period cucumbers (variety: “[…]”) cultivated by using a square plastic pot (size: 6.4 cm×6.4 cm) in a rate of 100 liters/10 a (ares). After the sprinkled leaves were air-dried, the spores were inoculated over the leaves by sprinkling the same with a brush from an infected leaf, a disease was contracted in a glass house (temperature: 20 to 24° C., relative humidity: 20 to 70 RH). On the 9th to 14th day after the inoculation, the infection degree was examined according to the following scale and the control value of each compound was calculated by the following calculation equation 2: (Examination Scale) [table]

wheat powdery mildew [2] = experiment: Permeable mobility fungicidal effect test in leaf section of wheat powdery mildew; format: in vivo; conditions: length of non-contracted area relative to compound (m-2); 200 mg/l, 0.5 μl applied to wheat leaf (Abukumawase)
Method: (Permeable Mobility Fungicidal Effect Test in Leaf Section of Wheat Powdery Mildew) In the test example 4, permeable mobility fungicidal effect test was performed on the leaf section of wheat powdery mildew with regard to the compounds I-1 to 27 according to the present invention and the comparative compounds (a) to (d), and (m-1) to (m-3) with the method described later. <Test Method> The compound in the form of a wettable powder obtained by Formulation 2 or the like was diluted and suspended with water to a predetermined concentration (200 mg/l), and 0.5 μl of the suspension was applied to a 2 to 3 cm leaf portion from the root of the three leaves of the 4th to 4.5th leaf period wheat (variety: Abukumawase) cultured by using a square plastic pot (size: 6.4 cm×6.4 cm). After these wheat leaves were subject to still standing in a glass house (temperature: 20 to 24° C., relative humidity: 20 to 70 RH) for one day, the spores of wheat powdery mildew were inoculated over the leaves by sprinkling the same with a brush from an infected leaf, a disease was contracted in the same glass house. The length of a non-contracted area generated from the applied portion to the direction of the leaf top was measured, and a relative mobility to the compound (m-2) was calculated with the following calculation […] by using the comparative compound (m-2) as a standard compound. Relative mobility=(Length of non-contracted area in each chemical section (cm)/Length of non-contracted area of compound (m-2) (cm)) (Equation 4)

Compound	pest or weed control at 125 µg/mL (wheat powdery mildew [1]; Triticum aestivum) [%]	inhibition at 1.6 ppm (Botrytis cinerea; read-out: Growth Inhibition B.c (1.6)) [%]	pest or weed control at 100 µg/mL (cucumber powdery mildew; Cucumis sativus) [%]	Control Value (wheat powdery mildew [1])	Relative Mobility (wheat powdery mildew [2])	Growth Inhibition B.c (1.6) (Botrytis cinerea)	Control Value (cucumber powdery mildew)
COc1cccc(CC(C)CN(C)Cc2ccc(Cl)nc2)c1 (centres unmarked) [(m-3), 6-chloro-N-[3-(3-methoxyphenyl)-2-methylpropyl]-N-methyl-3-pyridylmethylamine, reference compound]	0	< 20	0				
CC(Cc1cc(C(F)(F)F)cc(C(F)(F)F)c1)CN(C)Cc1ccc(Cl)nc1 (centres unmarked) [Compound I-1]				100	3	4 (Hypha extension inhibition rate of from 70% to less than 90%)	100
CC(Cc1ccc(C(F)(F)F)cc1C(F)(F)F)CN(C)Cc1ccc(Cl)nc1 (centres unmarked) [Compound I-2]				100	3	4 (Hypha extension inhibition rate of from 70% to less than 90%)	100
CC(Cc1cc(C(F)(F)F)ccc1C(F)(F)F)CN(C)Cc1ccc(Cl)nc1 (centres unmarked) [Compound I-3]				90	3	4 (Hypha extension inhibition rate of from 70% to less than 90%)	100
CC(Cc1cc(C(F)F)cc(C(F)(F)F)c1)CN(C)Cc1ccc(Cl)nc1 (centres unmarked) [Compound I-4]				100	3	4 (Hypha extension inhibition rate of from 70% to less than 90%)	80
CC(Cc1cc(Cl)cc(C(F)(F)F)c1)CN(C)Cc1ccc(Cl)nc1 (centres unmarked) [Compound I-5]				100	3	4 (Hypha extension inhibition rate of from 70% to less than 90%)	100
CC(Cc1cc(F)cc(C(F)(F)F)c1)CN(C)Cc1ccc(Cl)nc1 (centres unmarked) [Compound I-6]				100	5	4 (Hypha extension inhibition rate of from 70% to less than 90%)	100
CC(Cc1cccc(C(F)(F)F)c1F)CN(C)Cc1ccc(Cl)nc1 (centres unmarked) [Compound I-7]				100	5	4 (Hypha extension inhibition rate of from 70% to less than 90%)	90
CC(Cc1c(F)c(F)c(C(F)(F)F)c(F)c1F)CN(C)Cc1ccc(Cl)nc1 (centres unmarked) [Compound I-11]				90	5	4 (Hypha extension inhibition rate of from 70% to less than 90%)	100
CC(Cc1ccc(OC(F)F)cc1)CN(C)Cc1ccc(Cl)nc1 (centres unmarked) [Compound I-13]				100	9	4 (Hypha extension inhibition rate of from 70% to less than 90%)	100
CC(Cc1ccc(OC(F)(F)C(F)C(F)(F)F)cc1)CN(C)Cc1ccc(Cl)nc1 (centres unmarked) [Compound I-14]				100	7	4 (Hypha extension inhibition rate of from 70% to less than 90%)	100
CC(Cc1ccc(Cl)c(OC(F)(F)F)c1)CN(C)Cc1ccc(Cl)nc1 (centres unmarked) [Compound I-15]				100	9	4 (Hypha extension inhibition rate of from 70% to less than 90%)	100
CC(Cc1ccc(OC(F)(F)F)c(Cl)c1)CN(C)Cc1ccc(Cl)nc1 (centres unmarked) [Compound I-18]				100	8	5 (Hypha extension inhibition rate of 90% or more)	100
CC(Cc1ccc(OC(F)(F)Br)c(Cl)c1)CN(C)Cc1ccc(Cl)nc1 (centres unmarked) [Compound I-19]				100	8	4 (Hypha extension inhibition rate of from 70% to less than 90%)	100
CC(Cc1cc(Cl)c(F)c(Cl)c1)CN(C)Cc1ccc(Cl)nc1 (centres unmarked) [Compound I-22]				100	3	4 (Hypha extension inhibition rate of from 70% to less than 90%)	100
CC(Cc1c(F)c(F)c(F)c(F)c1F)CN(C)Cc1ccc(Cl)nc1 (centres unmarked) [Compound I-23]				100	4	4 (Hypha extension inhibition rate of from 70% to less than 90%)	70
CC(Cc1ccc2c(c1)OC(Cl)(Cl)O2)CN(C)Cc1ccc(Cl)nc1 (centres unmarked) [Compound I-25]				100	3	4 (Hypha extension inhibition rate of from 70% to less than 90%)	100
CC(Cc1ccc2c(c1)OC(F)(F)C(F)(F)O2)CN(C)Cc1ccc(Cl)nc1 (centres unmarked) [Compound I-26]				100	3	4 (Hypha extension inhibition rate of from 70% to less than 90%)	100
